From patent US5665739A, “Substituted benzoylguanidines, process and their preparation, their use as pharmaceutical or diagnostic, and pharmaceutical containing them” (priority 1992, dated 1997)

Experiments:
Na^+ /H^+ exchanger = biological target: T1, Na^+ /H^+ exchanger (Oryctolagus cuniculus, UniProt P23791); test: Inhibition of the Na+/H+ exchanger of rabbit erythrocytes; format: cell-based; details: amiloride-sensitive Na+ influx, pH 7.4, 37° C.
T1 construct: endogenous in cells; host or cells: rabbit erythrocytes (blood of cholesterol-fed White New Zealand rabbits)
Source text: Inhibition of the Na^+ /H^+ exchanger of rabbit erythrocytes
White New Zealand rabbits (Ivanovas) were given a standard diet containing 2% of cholesterol for six weeks so as to activate the Na^+ /H^+ exchange in order to be able to determine the Na^+ influx into the erythrocytes via Na^+ /H^+ exchange by means of flame photometry. The blood was sampled from the auricular artery and made incoagulable by addition of 25 IE of potassium heparin. Part of each sample was used for a repeated hematocrit measurement by centrifuging. 100 μl aliquots were used for measuring the initial Na^+ content of the erythrocytes.
To determine the amiloride-sensitive sodium influx, 100 μl of each blood sample were incubated in in each case 5 ml of a hyperosmolaric salt/sucrose medium (mmol/l: 140 NaCl, 3 KCl, 150 sucrose, 0.1 ouabain, 20 tris-hydroxymethylaminomethane) at pH 7.4 and 37° C. […] The intracellular sodium content was determined by flame photometry.
The Na^+ net influx was calculated from the difference between the initial sodium values and the sodium content of the erythrocytes after incubation. The sodium influx which can be inhibited by amiloride was determined from the difference of the sodium content of the erythrocytes after incubation with and without amiloride 3×10^-4 mol/l. […]

[1] = tested on: artificially induced ventricular fibrillation; details: rats' hearts; Eur. Heart J. 9 (suppl. 1): 167 (1988); cited from earlier work
[2] = in vivo; cited from earlier work

T1 sequence (P23791 whole entry): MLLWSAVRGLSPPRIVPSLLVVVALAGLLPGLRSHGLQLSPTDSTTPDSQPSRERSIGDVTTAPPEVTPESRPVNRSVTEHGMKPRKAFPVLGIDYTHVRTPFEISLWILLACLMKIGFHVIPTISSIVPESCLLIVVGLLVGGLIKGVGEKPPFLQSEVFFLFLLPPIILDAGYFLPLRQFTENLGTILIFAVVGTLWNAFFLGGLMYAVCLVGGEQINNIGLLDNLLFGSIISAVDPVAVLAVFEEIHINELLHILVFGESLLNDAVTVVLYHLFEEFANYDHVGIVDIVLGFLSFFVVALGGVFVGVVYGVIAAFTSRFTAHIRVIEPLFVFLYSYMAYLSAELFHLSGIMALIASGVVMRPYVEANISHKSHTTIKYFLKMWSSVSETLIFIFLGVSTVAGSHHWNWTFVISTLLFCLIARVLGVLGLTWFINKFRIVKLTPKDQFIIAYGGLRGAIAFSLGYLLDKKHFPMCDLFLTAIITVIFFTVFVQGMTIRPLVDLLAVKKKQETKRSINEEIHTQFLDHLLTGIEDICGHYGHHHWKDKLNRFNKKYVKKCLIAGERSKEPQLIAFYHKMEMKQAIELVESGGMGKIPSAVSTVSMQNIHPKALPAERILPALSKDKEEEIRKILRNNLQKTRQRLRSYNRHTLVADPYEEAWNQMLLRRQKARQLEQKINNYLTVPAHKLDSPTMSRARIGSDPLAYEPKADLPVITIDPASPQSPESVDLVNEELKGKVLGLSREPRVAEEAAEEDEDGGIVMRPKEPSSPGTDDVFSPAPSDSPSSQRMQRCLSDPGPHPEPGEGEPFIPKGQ

Structure (SMILES)	IC50 (Na^+ /H^+ exchanger) [nM]	suppression of artificially induced ventricular fibrillation [1]	hypotensive and saluretic side effects [2]
NC(N)=NC(=O)c1ccc(Oc2cccnc2)c(C(F)(F)F)c1 [Example 16, 4-(3-Pyridyloxy)-3-trifluoromethylbenzoylguanidine]	30	–	–
NC(N)=NC(=O)c1ccc(Oc2ccc3ncccc3c2)c(C(F)(F)F)c1 [Example 17, 4-(6-Quinolinoxy)-3-trifluoromethylbenzoylguanidine]	40	–	–
NC(N)=NC(=O)c1nc(Cl)c(N)nc1N [amiloride, Amiloride]	–	suppressed completely	accompanied by a hypotensive and saluretic activity
CCN(c1nc(N)c(C(=O)N=C(N)N)nc1Cl)C(C)C [ethylisopropylamiloride, Ethylisopropylamiloride]	–	even more potent than amiloride itself	–
